The target in one assay is MAP4K5 (KHS1) (Homo sapiens, UniProt Q9Y4K4). Particulars: Bollag et al., 2010; read-out: Primary Target(s) (IC50): MAP4K5 (KHS1); cited from earlier work.
For another assay, the system named is A875. Description: Melanoma cell viability (CellTiter-Glo). It counts as cell-based, human. Particulars: for HuMax-AXL-ADC sensitivity: 0.0001 to 10 µg/mL, 5 days.
The subject of a further assay is SKMEL147. As to the kind of experiment: Melanoma cell viability (CellTiter-Glo). It counts as cell-based, human. Particulars: for HuMax-AXL-ADC sensitivity: 0.0001 to 10 µg/mL, 5 days.
Another assay concerns M019R. Description: Patient-derived melanoma culture viability (CellTiter-Glo). It counts as cell-based, human.
In a further assay the test system is M082. The assay is described as above. It counts as cell-based, human. Particulars: for HuMax-AXL-ADC sensitivity: 8 days.
A further assay relates to SKMEL28R. As to the kind of experiment: Melanoma cell viability (CellTiter-Glo). Particulars: for HuMax-AXL-ADC sensitivity: 0.0001 to 10 µg/mL, 5 days. It counts as cell-based, human.
The test system of a further assay is SKMEL2R. Description: NRAS mutant melanoma cell viability (CellTiter-Glo). It counts as cell-based, human.
The test system of the next assay is SKMEL28. Description: Melanoma cell viability (CellTiter-Glo). It counts as cell-based, human. Particulars: for HuMax-AXL-ADC sensitivity: 0.0001 to 10 µg/mL, 5 days.
Another assay deals with FM6. As to the kind of experiment: NRAS mutant melanoma cell viability (CellTiter-Glo). It counts as cell-based, human.
The test system of another assay is BLM. Described as above. Type of assay: cell-based, human.
The next assay has as its system A375R. Description: Melanoma cell viability (CellTiter-Glo). Type of assay: cell-based, human.
Another assay has as its system SKMEL2. Description: NRAS mutant melanoma cell viability (CellTiter-Glo). Type of assay: cell-based, human.
The test system of a further assay is M016. Description: Patient-derived melanoma culture viability (CellTiter-Glo). It counts as cell-based, human. Particulars: for HuMax-AXL-ADC sensitivity: 8 days.
Another assay has as its target C-Raf (Homo sapiens, UniProt P04049). Particulars: literature reference per drug in Table 1; read-out: Primary Target(s) (IC50): C-Raf (also printed Raf-1, C-Raf-1, C-RAF); cited from earlier work.
For another assay, the system named is C-Raf/BRAF/BRAF V600E. Particulars: read-out: Primary Target(s) (IC50): C-Raf/BRAF/BRAF V600E; Mordant et al., 2010; cited from earlier work.
For a further assay, the target named is MEK1 (Homo sapiens, UniProt Q02750). Particulars: read-out: Primary Target(s) (IC50): MEK1; cited from earlier work.
The test system of another assay is SKMEL147 tumors. As to the kind of experiment: SKMEL147 melanoma xenograft model. It counts as in vivo, NMRI nude mice.
The subject of another assay is A431 cells. Description: Antibody-dependent cell-mediated cytotoxicity (51Cr release). It counts as cell-based, human. Particulars: concentrations up to 10 µg/mL; PBMC effector to target ratio 100:1. The procedure: The ability of anti-AXL antibodies to induce ADCC of A431 epidermoid carcinoma cells was determined as explained below. As effector cells, peripheral blood mononuclear cells from healthy volunteers (UMC Utrecht, The Netherlands) were used.
A431 cells were collected (5×10^6 cells) in culture medium (RPMI 1640 culture medium supplemented with 10% fetal calf serum (FSC)), to which 100 µCi ^51Cr (Chromium-51; Amersham Biosciences Europe GmbH, Roosendaal, The Netherlands) had been added, and the mixture was incubated in a 37° C. water bath for 1 hour (hr) while shaking. After washing of the cells (twice in PBS, 1200 rpm, 5 min), the cells were resuspended in RPMI1640/10% FSC and counted by trypan blue exclusion. […]
Peripheral blood mononuclear cells (healthy volunteers, UMC Utrecht, Utrecht, The Netherlands) were isolated from 45 mL of freshly drawn heparin blood by Ficoll (Bio Whittaker; lymphocyte separation medium, cat 17-829E) according to the manufacturer’s instructions. After resuspension of cells in RPMI1640/10% FSC, cells were counted by trypan blue exclusion and diluted to a density of 1×10^7 cells/mL.
50 µl of ^51Cr-labeled targets cells were pipetted into 96-well plates, and 50 µl of antibody were added, diluted in RPMI1640/10% FSC (3-fold dilutions at final concentrations range 0.01-10 µg/mL). […] The percentage specific lysis was calculated as follows: […]

The subject of assay [1] is LCLC-103H xenograft tumors. As to the kind of experiment: LCLC-103H xenograft model. It counts as in vivo, SCID mice. The procedure: 5 × 10^6 LCLC-103H (large cell lung carcinoma) tumor cells (obtained from Leibniz-Institut DSMZ-Deutsche Sammlung von Mikroorganismen und Zellkulturen GmbH (DSMZ)) in 200 µL PBS were injected subcutaneously in the right flank of female SCID mice. Starting 14-21 days after tumor cell inoculation, when the average tumor size was >100-200 mm^3 and distinct tumor growth was observed, a single injection with 1 mg/kg (20 µg/mouse) IgG1-AXL-vcMMAE antibodies (as described in Supplementary Example 1) or control (unconjugated IgG1-b12) was given intraperitoneally (100 µL/mouse). Tumor volume was determined at least two times per week. Tumor volumes (mm^3) were calculated from caliper (PLEXX) measurements as: 0.52 × (length) × (width)^2.
Tumor induction was performed by subcutaneous injection of 5 × 10^6 A431 or LCLC-103H tumor cells (both obtained from Leibniz-Institut - Deutsche Sammlung von Mikroorganismen und Zellkulturen GmbH (DSMZ)) in 200 µL PBS in the right flank of female SCID mice. Treatment was started 14-21 days after tumor cell inoculation, when the average tumor size was >100-200 mm^3 and distinct tumor growth was observed. […] Tumor volume was determined at least two times per week. Tumor volumes (mm^3) were calculated from caliper (PLEXX) measurements as: 0.52 × (length) × (width)^2.

For a further assay, the system named is COLO679. As to the kind of experiment: Melanoma cell viability (CellTiter-Glo). Particulars: 0.0001 to 10 µg/mL, 5 days. Type of assay: cell-based, human.
The subject of the next assay is A431 tumors. As to the kind of experiment: A431 xenograft model (high Gas6). Type of assay: in vivo, SCID mice. Particulars: 3 mg/kg. The procedure: Tumor induction was performed by subcutaneous injection of 5 × 10^6 A431 or LCLC-103H tumor cells (both obtained from Leibniz-Institut - Deutsche Sammlung von Mikroorganismen und Zellkulturen GmbH (DSMZ)) in 200 µL PBS in the right flank of female SCID mice. Treatment was started 14-21 days after tumor cell inoculation, when the average tumor size was >100-200 mm^3 and distinct tumor growth was observed. Mice received a single injection or a total of 4 biweekly intraperitoneal injections with IgG1-AXL-vcMMAE ADCs or control antibody (unconjugated IgG1-b12), as indicated. Tumor volume was determined at least two times per week. Tumor volumes (mm^3) were calculated from caliper (PLEXX) measurements as: 0.52 × (length) × (width)^2.

A further assay deals with PAXF1657 tumors. Description: PAXF1657 pancreas cancer PDX model. Particulars: day 0. It counts as in vivo, NMRI nu/nu mice.
Another assay concerns T1, MEK½.
T1 construct: other: Pheneger et al., 2006
Particulars: Pheneger et al., 2006; read-out: Primary Target(s) (IC50): MEK½; cited from earlier work.

[2] abbreviates: 4 mg/kg i.v. on day 12 and day 19 after tumor cell injection.

Results on nine compounds are retold here after patent publication US20230321261A1, “AXL-SPECIFIC ANTIBODY-DRUG CONJUGATES FOR CANCER TREATMENT” (GENMAB A/S, priority 2016, published 2023).

“And” between values parts separate entries of the source, which are not always exact repeats. Identical values can stand only once.

C-Raf, sequence (P04049 whole entry): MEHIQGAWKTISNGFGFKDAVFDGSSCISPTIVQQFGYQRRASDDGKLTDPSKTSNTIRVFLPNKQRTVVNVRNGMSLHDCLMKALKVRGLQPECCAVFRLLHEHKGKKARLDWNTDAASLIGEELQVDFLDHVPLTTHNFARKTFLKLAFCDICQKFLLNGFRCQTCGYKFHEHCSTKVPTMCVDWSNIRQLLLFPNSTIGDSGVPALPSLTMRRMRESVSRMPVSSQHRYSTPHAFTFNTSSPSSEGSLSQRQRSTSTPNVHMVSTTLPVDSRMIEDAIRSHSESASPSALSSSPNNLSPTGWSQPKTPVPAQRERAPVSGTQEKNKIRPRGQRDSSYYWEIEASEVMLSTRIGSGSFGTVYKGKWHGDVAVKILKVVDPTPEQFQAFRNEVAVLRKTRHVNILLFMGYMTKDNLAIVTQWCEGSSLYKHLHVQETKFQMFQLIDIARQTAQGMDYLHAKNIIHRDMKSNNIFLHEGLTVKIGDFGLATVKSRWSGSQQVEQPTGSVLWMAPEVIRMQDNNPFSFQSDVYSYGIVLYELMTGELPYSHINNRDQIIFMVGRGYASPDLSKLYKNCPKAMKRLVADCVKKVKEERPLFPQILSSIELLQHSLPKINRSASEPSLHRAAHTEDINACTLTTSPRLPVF
MAP4K5 (KHS1), sequence (Q9Y4K4 whole entry, species assumed): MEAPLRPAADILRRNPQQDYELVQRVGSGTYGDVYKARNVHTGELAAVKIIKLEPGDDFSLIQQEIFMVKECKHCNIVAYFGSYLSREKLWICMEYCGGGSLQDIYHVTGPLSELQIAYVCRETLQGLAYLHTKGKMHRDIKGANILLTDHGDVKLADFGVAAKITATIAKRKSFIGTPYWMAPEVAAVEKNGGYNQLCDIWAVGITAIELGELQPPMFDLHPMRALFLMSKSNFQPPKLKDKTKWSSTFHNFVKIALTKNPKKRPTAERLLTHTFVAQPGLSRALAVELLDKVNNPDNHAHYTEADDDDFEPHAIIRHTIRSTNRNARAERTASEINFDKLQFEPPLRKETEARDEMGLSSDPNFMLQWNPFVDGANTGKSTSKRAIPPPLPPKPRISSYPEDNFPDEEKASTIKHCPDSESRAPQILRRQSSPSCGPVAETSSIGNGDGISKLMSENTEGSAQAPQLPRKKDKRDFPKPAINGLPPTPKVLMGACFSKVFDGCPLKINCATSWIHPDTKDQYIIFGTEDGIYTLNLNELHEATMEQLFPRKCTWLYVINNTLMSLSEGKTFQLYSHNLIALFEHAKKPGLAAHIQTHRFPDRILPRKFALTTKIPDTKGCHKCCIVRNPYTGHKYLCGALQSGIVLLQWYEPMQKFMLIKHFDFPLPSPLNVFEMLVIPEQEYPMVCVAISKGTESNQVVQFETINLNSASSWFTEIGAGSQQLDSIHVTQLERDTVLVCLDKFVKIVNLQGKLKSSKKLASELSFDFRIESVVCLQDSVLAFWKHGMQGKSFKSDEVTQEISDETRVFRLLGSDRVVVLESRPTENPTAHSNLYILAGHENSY
MEK1, sequence (Q02750 whole entry): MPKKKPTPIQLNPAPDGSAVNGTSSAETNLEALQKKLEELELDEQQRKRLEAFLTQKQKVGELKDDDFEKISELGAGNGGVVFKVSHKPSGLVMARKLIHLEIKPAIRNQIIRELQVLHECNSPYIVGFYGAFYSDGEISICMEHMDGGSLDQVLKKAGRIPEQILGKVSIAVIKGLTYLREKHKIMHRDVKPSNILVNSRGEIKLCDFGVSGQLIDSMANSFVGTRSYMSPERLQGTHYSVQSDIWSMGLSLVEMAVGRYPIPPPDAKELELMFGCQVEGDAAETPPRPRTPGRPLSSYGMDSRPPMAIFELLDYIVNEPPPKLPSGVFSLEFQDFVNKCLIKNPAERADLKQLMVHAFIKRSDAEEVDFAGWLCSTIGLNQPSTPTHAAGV

Regarding `CCCS(=O)(=O)Nc1ccc(F)c(C(=O)c2c[nH]c3ncc(-c4ccc(Cl)cc4)cc23)c1F` [Vemurafenib, N-[3-[[5-(4-chlorophenyl)-1H-pyrrolo[2,3-b]pyridin-3-yl]carbonyl]-2,4-difluorophenyl]-1-propanesulfonamide], at MAP4K5 (KHS1), the IC50 was 51 nM.
Consider `CCCS(=O)(=O)Nc1ccc(F)c(C(=O)c2c[nH]c3ncc(Cl)cc23)c1F` [PLX4720, N-(3-(5-chloro-1H-pyrrolo[2,3-b]pyridine-3-carbonyl)-2,4-difluorophenyl)propane-1-sulfonamide], for which the PLX4720 sensitivity entry is listed as “sensitive” with A875; “resistant” in the assay with SKMEL147; “resistant” in the assay on M019R (M019R (Table 16)); “resistant” in the assay on M082; “resistant” with SKMEL28R; “insensitive” with SKMEL2R. Further, the PLX4720 sensitivity entry was “sensitive” with SKMEL28; “insensitive” with FM6; “insensitive” in the assay with BLM; “resistant” in the assay on A375R; “insensitive” with SKMEL2; “resistant” in the assay with M016. Besides, the “drug sensitivity in vitro: PLX4720 sensitivity” value in the assay with M019R (M019R, 8 days) is listed as “insensitive”.
For the compound `CN(C)CCOc1ccc(-c2nc(-c3ccncc3)c(-c3ccc4c(c3)CC/C4=N\O)[nH]2)cc1` [SB590885, (E)-5-(2-(4-(2-(dimethylamino)ethoxy)phenyl)-4-(pyridin-4-yl)-1H-imidazol-5-yl)-2,3-dihydroinden-1-one oxime], on C-Raf, the IC50 is 1.72 nM.
On to `Cn1c(Nc2ccc(C(F)(F)F)cc2)nc2cc(Oc3ccnc(-c4ncc(C(F)(F)F)[nH]4)c3)ccc21` [RAF265, 1-methyl-5-[2-[5-(trifluoromethyl)-1H-imidazol-2-yl]pyridin-4-yl]oxy-N-[4-(trifluoromethyl)phenyl]benzimidazol-2-amine], for which the IC50 in the assay with C-Raf/BRAF/BRAF V600E is 3 to 60 nM.
`O=C(c1ccc(F)c(F)c1Nc1ccc(I)cc1F)N1CC(O)([C@@H]2CCCCN2)C1` [Cobimetinib, [3,4-difluoro-2-[(2-fluoro-4-iodophenyl)amino]phenyl][3-hydroxy-3-(2S)-2-piperidinyl-1-azetidinyl]-methanone]: at MEK1, the IC50 is approximately 4.2 nM.
As to `CC(=O)Nc1cccc(-n2c(=O)n(C3CC3)c(=O)c3c(Nc4ccc(I)cc4F)n(C)c(=O)c(C)c32)c1` [Trametinib, N-(3-(3-cyclopropyl-5-(2-fluoro-4-iodophenylamino)-6,8-dimethyl-2,4,7-trioxo-3,4,6,7-tetrahydropyrido[4,3-d]pyrimidin-1(2H)-yl)phenyl)acetamide], the “drug sensitivity in vitro: trametinib sensitivity” value in the assay on M019R (M019R, 8 days) is given as “insensitive”. The values for the trametinib sensitivity result in the assay on SKMEL2R and with SKMEL2 were “insensitive” and “sensitive”, respectively.
Take “IgG1-AXL-107: AXL-specific human IgG1,κ antibody, VH SEQ ID NO:1, VL SEQ ID NO:2, Ig1 domain binding”: the “anti-tumor activity in the SKMEL147 melanoma xenograft model” value in the assay with SKMEL147 tumors (setting [2]) is given as “did not show tumor growth inhibition”. Besides, in the assay with A431 cells, the “ADCC in A431 cells (percentage specific lysis)” value is on record as “did not induce significant ADCC”.
For the compound IgG1-AXL-107-vcMMAE, the HuMax-AXL-ADC sensitivity result is listed as “sensitive” in the assay with A875; “Sensitive” in the assay with A875 (listed as HuMax-AXL-ADC); “did not show changes in viability” in the assay with COLO679; “Resistant” with COLO679 (listed as HuMax-AXL-ADC); “sensitive” in the assay with SKMEL147; “Sensitive” in the assay with SKMEL147 (listed as HuMax-AXL-ADC). Moreover, the HuMax-AXL-ADC sensitivity entry with M082 is “did not show a different response”; in the assay on M082 (listed as HuMax-AXL-ADC) it was “Insensitive”; in the assay with SKMEL28R it was “sensitive”; with SKMEL28R (listed as HuMax-AXL-ADC), “Sensitive”; with SKMEL28, “did not show changes in viability”; with SKMEL28 (listed as HuMax-AXL-ADC), “Resistant”. Also, the HuMax-AXL-ADC sensitivity result in the assay with M016 is on record as “sensitive”; in the assay with M016 (listed as HuMax-AXL-ADC) it was “Sensitive”. The “anti-tumor activity in the SKMEL147 melanoma xenograft model” value in the assay with SKMEL147 tumors (2 mg/kg i.v. on day 12 and day 19 after tumor cell injection) is “tumor growth inhibition”; in the assay on SKMEL147 tumors (setting [2]) it was “strong tumor regression”; in the assay on SKMEL147 tumors (4 mg/kg i.v. on day 12 and day 19 after tumor cell injection, listed as HuMax-AXL-ADC), “profound anti-tumor effect”. The “day until which tumor regression lasted” value with SKMEL147 tumors (4 mg/kg) is approximately 50 days. For the same compound, the “effect of retreatment after tumor regrowth” value in the assay with SKMEL147 tumors (single dose of 4 mg/kg on day 55, n=4) was “tumor regression in all four mice”. In addition, the “anti-tumor activity in the LCLC-103H xenograft model” value in assay [1] (1 mg/kg (Example 13, FIG. 14B)) was “regression”. The “anti-tumor activity in established SC LCLC-103H tumors” value in [1] (single injection 1 mg/kg intraperitoneally (Example 9)) is “tumor regression”. For the same compound, in the assay with A431 tumors, the “anti-tumor activity in the A431 xenograft model” value is given as “growth inhibition”. Moreover, in the assay on PAXF1657 tumors (2 mg/kg i.v.), the “growth of PAXF1657 tumors compared to the control group” value is recorded as “significantly reduced the growth”. Moreover, in the assay on PAXF1657 tumors (4 mg/kg i.v.), the “growth of PAXF1657 tumors” value is recorded as “induced tumor regression”.
As for `Cn1cnc2c(F)c(Nc3ccc(Br)cc3F)c(C(=O)NOCCO)cc21` [Binimetinib, 1H-Benzimidazole-6-carboxamide, 5-[(4-bromo-2-fluorophenyl)amino]-4-fluoro-N-(2-hydroxyethoxy)-1-methyl-], the IC50 in the assay with MEK½ is ~12 nM and 12 nM.
